Source: BindingDB's records for patent US12410160 (Gilead Sciences, 2025)

Legend:
[1] = target: T1, Isoform A of Ketohexokinase (Peripheral) (Human, UniProt P50053); test: KHK Biochemical Assay
T1 sequence (P50053 whole entry): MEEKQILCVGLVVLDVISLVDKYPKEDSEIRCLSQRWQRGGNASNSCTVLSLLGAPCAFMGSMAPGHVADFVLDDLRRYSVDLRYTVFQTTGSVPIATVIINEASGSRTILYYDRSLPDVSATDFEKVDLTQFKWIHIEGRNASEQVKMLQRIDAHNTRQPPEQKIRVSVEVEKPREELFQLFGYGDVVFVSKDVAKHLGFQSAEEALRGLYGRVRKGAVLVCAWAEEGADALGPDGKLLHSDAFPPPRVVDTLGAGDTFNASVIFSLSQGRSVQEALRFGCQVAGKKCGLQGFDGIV
Description: (§1) Compounds were tested for KHK enzyme inhibition in a high-throughput 384-well assay format using the ADP-Glo assay (Promega) in buffer consisting of 50 mM Hepes (pH 7.4), 140 mM KCl, 5 mM MgCl2 and 0.01% Triton-X. 0.2 nM. […] Compounds were serially diluted (1:3) in DMSO. […] The plates were incubated at room temperature for 4 hours before adding ADP-Glo reagent to quench the enzyme reaction, followed by incubation at room temperature for 1 hour. The ADP-Glo detection reagent was then added to the plates and luminescence was measured on the Envision plate reader after 1 hour.

Ketohexokinase = target: T2, Ketohexokinase (Human, UniProt P50053); test: KHK Biochemical Assay
T2 sequence (P50053 whole entry): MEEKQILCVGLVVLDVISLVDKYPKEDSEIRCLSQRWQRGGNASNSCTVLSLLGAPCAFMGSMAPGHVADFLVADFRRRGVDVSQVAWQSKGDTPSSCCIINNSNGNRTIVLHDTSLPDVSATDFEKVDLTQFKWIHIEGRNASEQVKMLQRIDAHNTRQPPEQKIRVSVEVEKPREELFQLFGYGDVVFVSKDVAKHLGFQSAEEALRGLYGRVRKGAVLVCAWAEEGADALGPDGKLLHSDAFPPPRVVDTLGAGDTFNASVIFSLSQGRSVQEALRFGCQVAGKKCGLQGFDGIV
Description: as §1

Row | SMILES | IC50 [1] | IC50 (Ketohexokinase)
1 | C[C@H]1[C@H](F)CN1c1nc2c(c(-c3cccc(S(N)(=O)=O)c3)n1)CCOC2 [US12410160, Example 287] | 0.696 µM | 1.27 µM
2 | C[C@H]1[C@H](O)CN1c1nc(-c2ccc3c(c2)C(=O)N(C)C3)c2c(n1)C(F)(F)CC2 [US12410160, Example 236] |  | 0.0054 µM
3 | C[C@H]1CCN1c1nc2c(c(-c3cccc(C4(N)CC4)c3)n1)CCC2 [US12410160, Example 225] | 0.294 µM | 0.343 µM
4 | C[C@H]1[C@H](O)CN1c1nc(-c2ccc3c(c2)S(C)(=O)=NC3)c2c(n1)C(F)(F)CC2 (some centres not stated) [US12410160, Example 805] |  | 0.018 µM
5 | C[C@H]1CCN1c1nc2c(c(-c3ccnc(S(N)(=O)=O)c3)n1)CCC2 [US12410160, Example 224] | 0.155 µM | 0.114 µM
6 | C[C@H]1CCN1c1nc2c(c(-c3cncn3C)n1)CCC2 [US12410160, Example 341] | 0.133 µM | 0.111 µM
7 | C[C@H]1[C@H](CO)CN1c1nc2c(c(-c3ccc(C(N)=O)cc3)n1)CCC2 (racemic) [US12410160, Example 267] |  | > 5 µM
8 | C[C@H]1CCN1c1nc(-c2cn(C3CNC3)nn2)c2c(n1)C(F)(F)CC2 [US12410160, Example 653] |  | 0.0082 µM
9 | C[C@H]1[C@H](O)CN1c1nc2c(c(-c3ccc(C(C)(C)O)cc3)n1)CCC2 [US12410160, Example 371] | 0.442 µM | 0.187 µM
10 | C[C@H]1CCN1c1nc(-c2cccc(C(N)=O)c2)c2c(n1)C1CC1C2 (some centres not stated) [US12410160, Example 272] | 0.267 µM | 0.319 µM
11 | C[C@H]1[C@H](O)CN1c1nc(-c2ccc3c(c2)CCC32COCCC(=O)N2)c2c(n1)C(F)(F)CC2 (some centres not stated) [US12410160, Example 552] |  | 0.0392 µM
12 | C[C@H]1CCN1c1nc(-c2ccc(C(N)=O)cc2)c2cn[nH]c2n1 [US12410160, Example 401] |  | 4.63 µM
13 | C[C@H]1[C@H](O)CN1c1nc(-c2cccc(-n3cnnc3)c2)c2c(n1)C(F)(F)CC2 [US12410160, Example 619] |  | 0.0143 µM
14 | C[C@H]1[C@H](O)CN1c1nc(-c2ccc3c(c2)C(NS(C)(=O)=O)CO3)c2c(n1)C(F)(F)CC2 (some centres not stated) [US12410160, Example 613] |  | 0.0043 µM
15 | COC(=O)N[C@H]1COc2cc(-c3nc(N4C[C@@H](O)[C@@H]4C)nc4c3CCC4(F)F)ccc21 [US12410160, Example 814] | 0.0713 µM | 0.0018 µM
16 | C[C@H]1CCN1c1nc2c(c(-c3ccc4c(c3)CN(S(=O)(=O)CC#N)CC4)n1)CCC2 [US12410160, Example 604] |  | 0.239 µM
17 | C[C@H]1[C@H](O)CN1c1nc(-c2cccc(N=S3(=O)CCOCC3)c2)c2c(n1)C(F)(F)CC2 [US12410160, Example 673] |  | 0.0092 µM
18 | CCS(=O)(=O)N[C@H]1COc2cc(-c3nc(N4C[C@@H](O)[C@@H]4C)nc4c3CCC4(F)F)ccc21 [US12410160, Example 624] |  | 0.0073 µM
19 | CC1CCCc2nc(N3CC[C@@H]3C)nc(-c3ccccc3)c21 (some centres not stated) [US12410160, Example 340] | > 50 µM | 
20 | C[C@H]1CCN1c1nc2c(c(-c3cn(C4CC4)nn3)n1)CCC2 [US12410160, Example 644] |  | 0.22 µM
21 | C[C@H]1CCN1c1nc2c(c(-c3ccc(CNS(C)(=O)=O)cc3)n1)CCC2 [US12410160, Example 361] | 0.0684 µM | 0.0303 µM
22 | C[C@H]1CCN1c1nc2c(c(-c3ccc(C4(NS(C)(=O)=O)CC4)cc3)n1)CCC2 [US12410160, Example 306] | 0.279 µM | 
23 | FC1(F)CCc2c(-c3ccc4c(c3)OC[C@@H]4NC3COC3)nc(N3CC[C@@H]3C(F)(F)F)nc21 [US12410160, Example 588] | 0.0093 µM | 0.0037 µM
24 | C[C@H]1[C@H](O)CN1c1nc(-c2ccc(OC(F)F)c(S(C)(=N)=O)c2)c2c(n1)C(F)(F)CC2 (some centres not stated) [US12410160, Example 532] |  | 0.0028 µM
25 | C[C@H]1CCN1c1nc2c(c(-c3cn(CCO)nn3)n1)CCC2 [US12410160, Example 645] |  | 0.158 µM
26 | C[C@H]1CCN1c1nc(-c2cccc(-n3ccnn3)c2)c2c(n1)C(F)(F)CC2 [US12410160, Example 654] |  | 0.0164 µM
27 | C[C@H]1[C@H](O)CN1c1nc(-c2ccc3c(c2)CCS3(=N)=O)c2c(n1)C(F)(F)CC2 (some centres not stated) [US12410160, Example 664] |  | 0.0173 µM

Row | SMILES | IC50 [1] | IC50 (Ketohexokinase)
28 | C[C@H]1[C@H](F)CN1c1nc2c(c(-c3cccc(CN)c3)n1)CCC2 [US12410160, Example 352] | 0.0356 µM | 0.0298 µM
29 | C[C@H]1CCN1c1nc2c(c(-c3nc4ccccc4[nH]3)n1)CCC2 [US12410160, Example 389] | 0.296 µM | 0.382 µM
30 | NC1(c2ccc(-c3nc(N4CCC4C4CC(F)(F)C4)nc4c3CCC4(F)F)cc2)COC1 (configuration not stated) [US12410160, Example 573] | > 0.1 µM | 
31 | C[C@H]1CCN1c1nc2c(c(-c3cccc(C4CCS(=O)(=O)N4)c3)n1)CCC2 (some centres not stated) [US12410160, Example 606] |  | 0.0153 µM
32 | COC(=O)N[C@@H]1COc2cc(-c3nc(N4C[C@@H](O)[C@@H]4C)nc4c3CCC4(F)F)ccc21 [US12410160, Example 815] |  | 0.0092 µM
33 | C[C@H]1[C@H](F)CN1c1nc2c(c(-c3ccc4c(c3)C(=O)N(C)C4)n1)CCC2 [US12410160, Example 203] | 0.0665 µM | 0.0298 µM
34 | C[C@H]1[C@H](O)CN1c1nc(-c2ccc3c(c2)COCC32CCC(=O)N2)c2c(n1)C(F)(F)CC2 (some centres not stated) [US12410160, Example 639] | 0.0159 µM | 0.0012 µM
35 | C[C@H]1[C@H](O)CN1c1nc(-c2ccc3c(c2)C(NS(C)(=O)=O)CC3)c2c(n1)C(F)(F)CC2 (some centres not stated) [US12410160, Example 621] |  | 0.0013 µM
36 | C[C@H]1CCN1c1nc2c(c(-c3ccc4c(c3)CCNC4=O)n1)CCC2 [US12410160, Example 283] | 0.0286 µM | 0.0158 µM
37 | C[C@H]1CCN1c1nc2c(c(-c3cccc(S(N)(=O)=O)n3)n1)CCC2 [US12410160, Example 223] | 0.0337 µM | 0.0269 µM
38 | C[C@H]1CCN1c1nc(-c2ccc(-n3ccnn3)cc2)c2c(n1)C(F)(F)CC2 [US12410160, Example 655] |  | 0.0251 µM
39 | C[C@H]1[C@H](O)CN1c1nc(-c2ccc3c(c2)OC(C(F)F)CNC3=O)c2c(n1)C(F)(F)CC2 (some centres not stated) [US12410160, Example 597] |  | 0.0056 µM
40 | Cc1cc(-c2nc(N3CC[C@@H]3C(F)(F)F)nc3c2CCC3(F)F)ccc1C1(N)COC1 [US12410160, Example 586] | 0.0013 µM | 0.0007 µM
41 | C[C@H]1CCN1c1nc2c(c(-c3ccnc(F)c3)n1)CCC2 [US12410160, Example 281] | 0.34 µM | 
42 | C[C@H]1[C@H](O)CN1c1nc(-c2ccc3c(c2)CNCC3)c2c(n1)C(F)(F)CC2 [US12410160, Example 612] |  | 0.0326 µM
43 | C[C@H]1CCN1c1nc(-c2ccc([C@H](N)C(F)F)cc2)c2c(n1)C(F)(F)CC2 [US12410160, Example 650] |  | 0.0066 µM
44 | C[C@H]1[C@H](O)CN1c1nc2c(c(-c3cccc(S(N)(=O)=O)c3)n1)CCC2 [US12410160, Example 209] | 0.0354 µM | 0.0553 µM
45 | C[C@H]1[C@H](O)CN1c1nc(-c2ccc3c(c2)COC[C@@H]3NS(=O)(=O)CF)c2c(n1)C(F)(F)CC2 [US12410160, Example 580] | 0.013 µM | 0.0037 µM
46 | C[C@H]1[C@H](O)CN1c1nc2c(c(-c3ccc4c(N)nccc4c3)n1)CCC2 [US12410160, Example 385] | 0.0042 µM | 0.0018 µM
47 | C[C@H]1[C@H](O)CN1c1nc(-c2cn(C3CNC3)nn2)c2c(n1)C(F)(F)CC2 [US12410160, Example 647] |  | 0.0155 µM
48 | C[C@H]1CCN1c1nc2c(c(-c3ccc4c(c3)C(=O)N(C)C4)n1)CCC2 [US12410160, Example 206] | 0.0244 µM | 0.016 µM
49 | C[C@H]1CCN1c1nc(-c2ccc(C#N)c(S(C)(=N)=O)c2)c2c(n1)C(F)(F)CC2 (some centres not stated) [US12410160, Example 798] |  | 0.0519 µM
50 | C[C@H]1[C@H](O)CN1c1nc(-c2ccc3c(c2)S(=O)(=O)CC3NS(C)(=O)=O)c2c(n1)C(F)(F)CC2 (some centres not stated) [US12410160, Example 665] |  | 0.0009 µM
51 | COc1ccc(-c2nc(N3CC[C@@H]3C(F)(F)F)nc3c2CCC3(F)F)cc1[S@@](C)(=N)=O [US12410160, Example 825] | 0.0005 µM | 0.0009 µM
52 | CCOC(=O)NCc1ccc(-c2nc(N3CC[C@@H]3C)nc3c2CCC3)cc1 [US12410160, Example 358] | 0.435 µM | 0.293 µM
53 | C[C@H]1[C@H](O)CN1c1nc(-c2cccc(S(=N)(=O)CC#N)c2)c2c(n1)C(F)(F)CC2 (some centres not stated) [US12410160, Example 628] | 0.0103 µM | 0.0088 µM
54 | N#C[C@H]1CCN1c1nc(-c2ccc([C@@H](N)C(F)F)cc2)c2c(n1)C(F)(F)CC2 [US12410160, Example 660] |  | 0.0057 µM
